Measured values taken from patent US20220340542A1, “SALTS OF OMECAMTIV MECARBIL AND SOLID FORMS THEREOF” (SYNTHON B.V., priority 2019, published 2022).
Where a name gives a salt, the structure may show the parent alone.

Columns and labels:
[1] = Solubility of Omecamtiv mecarbil salts in water solution (aqueous buffer) at different pH; format: physicochemical; conditions: for Category of solubility (Descriptive Term): USP / Ph. Eur. descriptive terms; for Solubility in comparison with Omecamtiv mecarbil dihydrochloride monohydrate salt: water solution at pH 1.2, 4.5 and 6.8
Description: The solubility of prepared salts was tested in water solution at different pH (1.2, 4.5 and 6.8) and compared to Omecamtiv mecarbil dihydrochloride monohydrate salt prepared according to a procedure disclosed in WO2006009726 application. It can be concluded that solubilities of Omecamtiv mecarbil maleic acid salt, Form A, Omecamtiv mecarbil fumaric acid (1:1), Form I, Omecamtiv mecarbil malonic acid (1:1), Form I, Omecamtiv mecarbil adipic acid (1:1.5), Form I, Omecamtiv mecarbil sulfuric acid (1:1), Forms I, II and III salts are lower in comparison with Omecamtiv mecarbil dihydrochloride monohydrate salt.

[2] = Solid form stability when kept at elevated temperature and relative humidity; format: physicochemical; conditions: 70% to 100% relative humidity, between 20 and 40 days
Description: The Form II can be characterized by XRPD pattern having 2θ values 5.0°, 9.3° and 16.5° degrees 2 theta (f 0.2 degrees 2 theta). The solid Form II can be also characterized by XRPD pattern having 2θ values 5.0°, 9.3°, 16.5°, 18.6° and 24.6° degrees 2 theta (±0.2 degrees 2 theta). The solid form can be further characterized by XRPD pattern described in the following table:
The Form III can be characterized by XRPD pattern having […] 14.3°, 19.3° and 25.8° degrees 2 theta (±0.2 degrees 2 theta). The solid […] can be also characterized by XRPD pattern having 2θ values 5.4°, 7.5°, 14.3°, 19.3° and 25.8° degrees 2 theta (±0.2 degrees 2 theta). The solid form can be further characterized by XRPD pattern described in the following table: […]

Category of solubility (Descriptive Term) ([1]; aqueous buffer pH 1.2)	Category of solubility (Descriptive Term) ([1]; aqueous buffer pH 4.5)	Category of solubility (Descriptive Term) ([1]; aqueous buffer pH 6.8)	Solubility in comparison with Omecamtiv mecarbil dihydrochloride monohydrate salt ([1]; listed as Omecamtiv mecarbil sulfuric acid (1:1), Forms I, II and III)	Solubility in comparison with Omecamtiv mecarbil dihydrochloride monohydrate salt ([1]; Form I)	Solubility in comparison with Omecamtiv mecarbil dihydrochloride monohydrate salt ([1]; Form A)	SMILES	Solid form transformation on storage ([2]; temperature between 40° C. and 70° C.)	Solid form transformation on storage ([2]; temperature between 40° C. and 80° C.)
Sparingly soluble ((10-33 mg/mL))	Sparingly soluble ((10-33 mg/mL))	Sparingly soluble ((10-33 mg/mL))	lower			COC(=O)N1CCN(Cc2cccc(NC(=O)Nc3ccc(C)nc3)c2F)CC1 [Salt with sulfuric acid (1:1), Forms I, II and III] [Omecamtiv mecarbil sulfuric acid salt]		
Sparingly soluble ((10-33 mg/mL))	Sparingly soluble ((10-33 mg/mL))	Very slightly soluble ((0.1-1 mg/mL))		lower		COC(=O)N1CCN(Cc2cccc(NC(=O)Nc3ccc(C)nc3)c2F)CC1 [Salt with adipic acid (1:1.5), Form I, Omecamtiv mecarbil adipic acid (1:1.5) salt]		
Very slightly soluble ((0.1-1 mg/mL))	Sparingly soluble ((10-33 mg/mL))	Sparingly soluble ((10-33 mg/mL))		lower		COC(=O)N1CCN(Cc2cccc(NC(=O)Nc3ccc(C)nc3)c2F)CC1 [Salt with fumaric acid (1:1), Form I, Omecamtiv mecarbil fumaric acid (1:1) salt]	transformed to Omecamtiv mecarbil fumaric acid (1:1), Form II	
Freely soluble ((100-1000 mg/mL))	Freely soluble ((100-1000 mg/mL))	Freely soluble ((100-1000 mg/mL))				COC(=O)N1CCN(Cc2cccc(NC(=O)Nc3ccc(C)nc3)c2F)CC1 [Salt with HC1, Omecamtiv mecarbil dihydrochloride monohydrate salt, reference compound]		
Sparingly soluble ((10-33 mg/mL))	Sparingly soluble ((10-33 mg/mL))	Very slightly soluble ((0.1-1 mg/mL))			lower	COC(=O)N1CCN(Cc2cccc(NC(=O)Nc3ccc(C)nc3)c2F)CC1 [Salt with maleic acid, Form A, Omecamtiv mecarbil maleic acid salt]		
Sparingly soluble ((10-33 mg/mL))	Sparingly soluble ((10-33 mg/mL))	Very slightly soluble ((0.1-1 mg/mL))		lower		COC(=O)N1CCN(Cc2cccc(NC(=O)Nc3ccc(C)nc3)c2F)CC1 [Salt with malonic acid (1:1), Form I, Omecamtiv mecarbil malonic acid (1:1) salt]		
Freely soluble ((100-1000 mg/mL))	Freely soluble ((100-1000 mg/mL))	Freely soluble ((100-1000 mg/mL))		comparable		COC(=O)N1CCN(Cc2cccc(NC(=O)Nc3ccc(C)nc3)c2F)CC1 [Salt with fumaric acid (1:2), Form I, Omecamtiv mecarbil fumaric acid (1:2) salt]		
						COC(=O)N1CCN(Cc2cccc(NC(=O)Nc3ccc(C)nc3)c2F)CC1 [Omecamtiv mecarbil sulfuric acid salt]		transformed to Omecamtiv mecarbil sulfuric acid salt, Form III
